Values after ≈ are worked out from the molar mass of the structure shown.

The test system of the assay is Radical scavenging activity. Put plainly: Antioxidant activity assessed as DPPH radical scavenging activity. The assay is classed as functional. (In general: The DPPH test is a chemical assay of radical scavenging.)
For orientation: IC50 means the concentration at which inhibition is half-maximal. For the compound `Oc1ccc([C@H]2Oc3cc(O)cc(O)c3C[C@H]2O)cc1` [EPIAFZELECHIN (2R,3R)(-)], the IC50 stood at 7.5 µg/mL (≈ 27.3 µM).

`O=C(O[C@@H]1Cc2c(O)cc(O)cc2O[C@@H]1c1cc(O)c(O)c(O)c1)c1cc(O)c(O)c(O)c1` [EPIGALOCATECHIN GALLATE]: the IC50 was 5.6 µg/mL (≈ 12.2 µM).

For `O=C(O[C@@H]1Cc2c(O)cc(O)cc2O[C@@H]1c1ccc(O)c(O)c1)c1ccccc1`, the IC50 came out at 17 µg/mL (≈ 43.1 µM).

In the case of `O=C(O[C@@H]1Cc2c(O[C@@H]3O[C@H](CO)[C@@H](O)[C@H](O)[C@H]3O)cc(O)cc2O[C@@H]1c1ccc(O)c(O)c1)c1ccccc1`, the IC50 turned out to be 25 µg/mL (≈ 44.9 µM).

In the case of `Oc1cc(O)c2c(c1)O[C@H](c1ccc(O)c(O)c1)[C@H](O)C2` [(-)-EPICATECHIN], the 50% inhibitory concentration (IC50) is 8.5 µg/mL (≈ 29.3 µM).

With VITAMIN E, the IC50 worked out at 6.2 µg/mL.

Turning to `COc1ccc(O)c(C(C)(C)C)c1.COc1ccc(O)cc1C(C)(C)C` [BUTYLATED HYDROXYANISOLE], the IC50 came out at 4.5 µg/mL.

For the origin of these results see ChEMBL document CHEMBL1150224, “Antioxidant benzoylated flavan-3-ol glycoside from Celastrus orbiculatus” (J Nat Prod, 2001).
